Assay results published in PubChem BioAssay (NCI).
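Five concentrations, 48 hours, 96-well plates. At the TGI there is no net growth.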

Tests used:
Assay in all cases: growth of human tumour cells (NCI), 48 h
CAKI-1 renal = test system: CAKI-1 renal
SK-MEL-5 melanoma = test system: SK-MEL-5 melanoma
NCI-H23 lung = test system: NCI-H23 lung
RXF 393 renal = test system: RXF 393 renal
UACC-257 melanoma = test system: UACC-257 melanoma
M19-MEL melanoma = test system: M19-MEL melanoma
XF 498 CNS = test system: XF 498 CNS
TK-10 renal = test system: TK-10 renal
IGROV1 ovarian = test system: IGROV1 ovarian
A549 NSCLC = test system: A549 NSCLC
ACHN renal = test system: ACHN renal
SNB-75 CNS = test system: SNB-75 CNS
MALME-3M melanoma = test system: MALME-3M melanoma
K-562 leukemia = test system: K-562 leukemia
DLD-1 colon = test system: DLD-1 colon
CCRF-CEM leukemia = test system: CCRF-CEM leukemia
DMS 273 small cell lung = test system: DMS 273 small cell lung
U251 CNS = test system: U251 CNS
A498 renal = test system: A498 renal
SK-OV-3 ovarian = test system: SK-OV-3 ovarian
HOP-18 NSCLC = test system: HOP-18 NSCLC
OVCAR-4 ovarian = test system: OVCAR-4 ovarian
OVCAR-3 ovarian = test system: OVCAR-3 ovarian
HOP-92 NSCLC = test system: HOP-92 NSCLC
OVCAR-5 ovarian = test system: OVCAR-5 ovarian
UO-31 renal = test system: UO-31 renal
SR leukemia = test system: SR leukemia
RPMI-8226 leukemia = test system: RPMI-8226 leukemia
HT29 colon = test system: HT29 colon
DMS 114 small cell lung = test system: DMS 114 small cell lung
786-0 renal = test system: 786-0 renal
SNB-19 CNS = test system: SNB-19 CNS
HCC-2998 colon = test system: HCC-2998 colon
SK-MEL-2 melanoma = test system: SK-MEL-2 melanoma
HOP-62 NSCLC = test system: HOP-62 NSCLC
NCI-H460 lung = test system: NCI-H460 lung
SN12C renal = test system: SN12C renal
KM12 colon = test system: KM12 colon
SF-295 CNS = test system: SF-295 CNS
HCT-116 colon = test system: HCT-116 colon
LXFL 529 NSCLC = test system: LXFL 529 NSCLC
SW-620 colon = test system: SW-620 colon
SK-MEL-28 melanoma = test system: SK-MEL-28 melanoma
OVCAR-8 ovarian = test system: OVCAR-8 ovarian
MOLT-4 leukemia = test system: MOLT-4 leukemia
KM20L2 colon = test system: KM20L2 colon
COLO 205 colon = test system: COLO 205 colon
LOX IMVI melanoma = test system: LOX IMVI melanoma
UACC-62 melanoma = test system: UACC-62 melanoma
NCI-H522 lung = test system: NCI-H522 lung
EKVX NSCLC = test system: EKVX NSCLC
M14 melanoma = test system: M14 melanoma
HCT-15 colon = test system: HCT-15 colon
SF-268 CNS = test system: SF-268 CNS
NCI-H226 lung = test system: NCI-H226 lung
SNB-78 CNS = test system: SNB-78 CNS
HL-60(TB) leukemia = test system: HL-60(TB) leukemia
SF-539 CNS = test system: SF-539 CNS

Measured: TGI

CCOC(=O)C(=O)/C=C(\C)Nc1c(NC2OCC(OC(C)=O)C(OC(C)=O)C2OC(C)=O)nc(SC)[nH]c1=O (configuration not stated)
> 100 µM: CAKI-1 renal | SK-MEL-5 melanoma | NCI-H23 lung | RXF 393 renal | UACC-257 melanoma | M19-MEL melanoma | XF 498 CNS | TK-10 renal | IGROV1 ovarian | A549 NSCLC | ACHN renal | SNB-75 CNS | MALME-3M melanoma | K-562 leukemia | DLD-1 colon | CCRF-CEM leukemia | DMS 273 small cell lung | U251 CNS | A498 renal | SK-OV-3 ovarian | HOP-18 NSCLC | OVCAR-4 ovarian | OVCAR-3 ovarian | HOP-92 NSCLC | OVCAR-5 ovarian | UO-31 renal | SR leukemia | RPMI-8226 leukemia | HT29 colon | DMS 114 small cell lung | 786-0 renal | SNB-19 CNS | HCC-2998 colon | SK-MEL-2 melanoma | HOP-62 NSCLC | NCI-H460 lung | SN12C renal | KM12 colon | SF-295 CNS | HCT-116 colon | LXFL 529 NSCLC | SW-620 colon | SK-MEL-28 melanoma | OVCAR-8 ovarian | MOLT-4 leukemia | KM20L2 colon | COLO 205 colon | LOX IMVI melanoma | UACC-62 melanoma | NCI-H522 lung | EKVX NSCLC | M14 melanoma | HCT-15 colon | SF-268 CNS

CSC1(C)CC2C(CC1N1CCCCC1)C2(C)C (configuration not stated)
> 100 µM: NCI-H226 lung | SNB-78 CNS | NCI-H23 lung | UACC-257 melanoma | M19-MEL melanoma | XF 498 CNS | TK-10 renal | IGROV1 ovarian | A549 NSCLC | HL-60(TB) leukemia | ACHN renal | SNB-75 CNS | MALME-3M melanoma | K-562 leukemia | DLD-1 colon | CCRF-CEM leukemia | DMS 273 small cell lung | U251 CNS | SK-OV-3 ovarian | HOP-18 NSCLC | OVCAR-4 ovarian | OVCAR-3 ovarian | HOP-92 NSCLC | OVCAR-5 ovarian | SF-539 CNS | UO-31 renal | RPMI-8226 leukemia | HT29 colon | 786-0 renal | HCC-2998 colon | SK-MEL-2 melanoma | NCI-H460 lung | SN12C renal | KM12 colon | SF-295 CNS | HCT-116 colon | LXFL 529 NSCLC | SK-MEL-28 melanoma | OVCAR-8 ovarian | MOLT-4 leukemia | COLO 205 colon | M14 melanoma | HCT-15 colon | SF-268 CNS

CCOC(=O)N1C=NC23C(c4ccccc4)C(c4ccccc4)C12C(=O)N(C)C(=O)N3C (configuration not stated)
> 100 µM: CAKI-1 renal | SK-MEL-5 melanoma | NCI-H23 lung | RXF 393 renal | UACC-257 melanoma | M19-MEL melanoma | XF 498 CNS | TK-10 renal | IGROV1 ovarian | A549 NSCLC | HL-60(TB) leukemia | ACHN renal | SNB-75 CNS | MALME-3M melanoma | K-562 leukemia | DLD-1 colon | CCRF-CEM leukemia | DMS 273 small cell lung | U251 CNS | A498 renal | SK-OV-3 ovarian | HOP-18 NSCLC | OVCAR-4 ovarian | OVCAR-3 ovarian | HOP-92 NSCLC | OVCAR-5 ovarian | UO-31 renal | SR leukemia | RPMI-8226 leukemia | HT29 colon | 786-0 renal | SNB-19 CNS | HCC-2998 colon | SK-MEL-2 melanoma | HOP-62 NSCLC | NCI-H460 lung | SN12C renal | KM12 colon | SF-295 CNS | HCT-116 colon | LXFL 529 NSCLC | SW-620 colon | SK-MEL-28 melanoma | OVCAR-8 ovarian | MOLT-4 leukemia | KM20L2 colon | COLO 205 colon | LOX IMVI melanoma | UACC-62 melanoma | NCI-H522 lung | EKVX NSCLC | M14 melanoma | HCT-15 colon | SF-268 CNS
